Source: patent US10011590B2, “Crystalline forms of vilazodone hydrochloride and vilazodone free base” (DR. REDDY'S LABORATORIES LIMITED, priority 2012, dated 2018)

Assay: Effect of variation of water (and solvent) content on stability and PXRD pattern of the solid form
Format: physicochemical
Details: for effect of variation of water content on stability and PXRD pattern: variation of water content within the stated range

Cl.N#Cc1ccc2[nH]cc(CCCCN3CCN(c4ccc5oc(C(N)=O)cc5c4)CC3)c2c1 [2-benzofurancarboxamide, 5-[4-[4-(5-cyano-1H-indol-3-yl)butyl]-1-piperazinyl]-, hydrochloride (1:1)]
effect of variation of water content on stability and PXRD pattern: does not affect the stability and PXRD pattern

Cl.N#Cc1ccc2[nH]cc(CCCCN3CCN(c4ccc5oc(C(N)=O)cc5c4)CC3)c2c1 [Form D, 2-benzofurancarboxamide, 5-[4-[4-(5-cyano-1H-indol-3-yl)butyl]-1-piperazinyl]-, hydrochloride (1:1)]
effect of variation of water and solvents on stability and PXRD pattern (variation of water and solvent content of the mixed solvates): may not affect the stability and PXRD pattern

Cl.N#Cc1ccc2[nH]cc(CCCCN3CCN(c4ccc5oc(C(N)=O)cc5c4)CC3)c2c1 [Form B, 2-benzofurancarboxamide, 5-[4-[4-(5-cyano-1H-indol-3-yl)butyl]-1-piperazinyl]-, hydrochloride (1:1)]
effect of variation of water content on stability and PXRD pattern (listed as crystalline form B of vilazodone hydrochloride): may not affect the stability and PXRD pattern

N#Cc1ccc2[nH]cc(CCCCN3CCN(c4ccc5oc(C(N)=O)cc5c4)CC3)c2c1 [form I of vilazodone free base, vilazodone free base]
effect of variation of water content on stability and PXRD pattern: does not affect the stability and PXRD pattern

Cl.N#Cc1ccc2[nH]cc(CCCCN3CCN(c4ccc5oc(C(N)=O)cc5c4)CC3)c2c1 [Form C, 2-benzofurancarboxamide, 5-[4-[4-(5-cyano-1H-indol-3-yl)butyl]-1-piperazinyl]-, hydrochloride (1:1)]
effect of variation of water content on stability and PXRD pattern (listed as vilazodone hydrochloride crystalline form C): may not affect the stability and PXRD pattern
